Patent publication US20050203063A1, “Proteasome pathway inhibitors and related methods” (priority 2003, published 2005)
“Also recorded” adds a separate entry of the source.

Key:
[1] = tested on: cyclin-luciferase (cyc-luc) turnover, activated APC/C; experiment: cyc-luc turnover in mitotic Xenopus extracts (pre-treated with non-degradable cyclin B); type: biochemical; conditions: 200 μM compound; extracts in mitosis before addition of compound
Method: FIG. 1. Functional classification of inhibitors. Compounds that scored in the initial screen were reacquired as dry powders and retested in Xenopus extracts in 4 assays at 200 μM concentration (32) as described (6). […] (A) Compounds and cyclin-luciferase were added to interphase extracts, which were then induced to enter mitosis by addition of non-degradable cyclin B. Percent inhibition of cyc-luc turnover by each compound is coded according to the grayscale shown at the bottom of the figure; specific values are available in Table 1. (B) Extracts were pre-treated with non-degradable cyclin B to allow entry into mitosis prior to addition of test compound and reporter protein. (C) Interphase extracts were treated by addition of recombinant Cdh1 to activate cyc-luc turnover. (D) Interphase extracts were treated with recombinant axin to induce turnover of β-catenin-luciferase.
The “Cmpd” column corresponds to the numbers used in FIG. 1; “Class” refers to the class of inhibitor described in FIG. 1 and the text. Columns A-D show percent inhibition in the four assays described in FIG. 1. (A) Interphase extracts (B) Mitotic extracts (C) Interphase extracts stimulated with Cdh1 (D) Degradation of a β-catenin reporter protein in interphase extracts stimulated with recombinant axin. […] “ID#” refers to the identification number of the inhibitor obtained from the NCI (prefaced by NSC) or Chembridge (prefaced by C).
Dry compounds were redissolved at 20 mM concentration in DMSO, or a 50:50 water:DMSO mixture in certain cases. These compounds were then diluted ten-fold in XB and mixed thoroughly. For the assay in FIG. 1A, chilled interphase extract was mixed with cyclin BΔ90 (10 μg/ml) and cyc-luc (0.1 μg/ml) in bulk and then 27 μl of extract was pipetted to each well of a chilled 384-well plate. Three microliters of each compound (diluted in XB) was then added to each well, and then compounds mixed thoroughly. Plates were warmed to room temperature. After 70 minutes, 5 μl aliquots were transferred to another plate, and then 30 μl of luciferin reagent was added to each well and luminescence measured. Percent inhibition was calculated as described above. The reported values represent the average of three independent measurments. For the assay in FIG. 1B, interphase extracts were treated with 10 μg/cyclin B 90 for 50 minutes at room temperature and then chilled on ice. Cyc-luc was then added, and then 27 μl of extract was pipetted to each well of a chilled 384-well plate. Three microliters of each compound (diluted in XB) was then added to each well, and then compounds mixed thoroughly. Plates were warmed to room temperature. After 60 minutes, 5 μl aliquots were transferred to another plate, and then 30 μl of luciferin reagent was added to each well and luminescence measured. For the assay in FIG. 1C, recombinant Cdh1 (0.1 μg/ml) and cyc-luc were added to chilled interphase extracts. Extracts were then pipetted and compounds added as above. Plates were warmed to room temperature and incubated for three hours, following which luminescence was measured as above. For the assay in FIG. 1D, chilled interphase extracts received recombinant axin and beta-catenin-luciferase reporter as described (8). Extracts were aliquoted to chilled plates and compounds distributed as described above. Plates were warmed to room temperature, incubated for three hours, and luminescence measured.

26S proteasomes [2] = experiment: Degradation of UbSic1 by purified 26S proteasomes; type: biochemical, S. cerevisiae; conditions: concentrations as low as 10 μM
Method: (§1) FIG. 2. […] (A) Degradation of UbSic1. Purified 26S proteasomes were preincubated in the presence or absence of test compounds. UbSic1 was then added, and degradation assayed as described (6). Py mock refers to the pyridine solvent in which C23 was dissolved which was marginally inhibitory, unlike the 50% DMSO vehicle used for other test compounds. (B) Deubiquitination of UbSic1. […] UbSic1 was then added, and deubiquitination was assayed as described (6). (C) Titration curve with varying concentrations of C92 to determine half-maximal inhibition of deubiquitination. (D) C92 inhibits binding of UbSic1 to 26S proteasomes. Purified 26S proteasomes immobilized on anti-Flag beads were incubated with UbSic1 in the presence or absence of C92 as described (6). Following binding, beads were washed and analyzed by immunoblotting with anti-Sic1 polyclonal serum. (E) Binding of UbSic1 to the polyUb binding proteins Rpn10 and Rad23 is inhibited by C92. Recombinant Gst-Rpn10 and Gst-Rad23 (1 μg each) were immobilized on glutathione sepharose beads and then incubated with UbSic1 in the presence or absence of C92. Following binding, beads were washed and analyzed by immunoblotting. (F) C92 interacts with multiUb chains. Equivalent amounts (5 μg) of purified Gst, Gst-fusion protein or multiUb chains were incubated with C92 or C1 before being loaded on a 5% native polyacryamide gel. Electrophoresis was performed as described (33). (G) C92 and C59 interact specifically with K48-linked Ub on native gels. Ub (16 μM), K48-linked diUb (8 μM), or tetraUb chains (8 μM) were preincubated with a two fold-molar excess (monoUb and diUb), or equivalent amounts (tetraUb) of test compounds before being resolved on native gels as in (G). Tetra K29Ub, K48Ub, and K63Ub refer to tetraubiquitin chains wherein the ubiquitins are linked via K29, K48, or K63.
Sic1 is a Cdk inhibitor in Saccharomyces cerevisiae that must be degraded for cells to enter S-phase (9-11). […]

26S proteasomes [3] = experiment: Deubiquitination of UbSic1 by epoxomicin-treated purified 26S proteasomes; type: biochemical, S. cerevisiae; conditions: 100 μM test compound, 100 μM epoxomicin
Method: as §1
FIG. 5. […] Assays were performed and evaluated as summarized in the legend to FIG. 2B. The metal chelating reagent phenanthroline is designated as “P”, and “Py” refers to the pyridine solvent that is used as the solvent for C23. (B) Titration curve for C59. (C) Inhibition of binding of ubiquitin conjugates to Gst-Rpn10 by C92 and C59, but not other compounds. The experiment was performed as described for FIG. 2E.
26S proteasomes were purified from S. cerevisiae cells expressing a Flag-tagged proteasomal subunit (PRE1) essentially as described (28).
Reactions were processed as above.

Structure (SMILES)	percent inhibition of cyc-luc turnover, (B) Mitotic extracts [1] [%]	inhibitory effect on Sic1 (UbSic1) turnover (26S proteasomes [2])	inhibition of deubiquitination of UbSic1 (in words) (26S proteasomes [3]; listed as C23)	inhibition of deubiquitination of UbSic1 (in words) (26S proteasomes [3])
CC(=O)Nc1ccc(SSc2ccc(NC(C)=O)c3cccnc23)c2ncccc12 [Compound 23]	100	more modest effect	marginal inhibition; also recorded: inhibited marginally	
O=S(=O)(O)c1ccc2cc3c(cc2c1)NN(c1ccc(/C=C/c2ccc(N4Nc5cc6ccc(S(=O)(=O)O)cc6cc5N4)cc2S(=O)(=O)O)c(S(=O)(=O)O)c1)N3 [Compound 59]	100	strong inhibitory effect		Complete inhibition
O=C(Nc1ccc(/C=C/c2ccc(NC(=O)c3cc(S(=O)(=O)O)c4cccnc4c3O)cc2S(=O)(=O)O)c(S(=O)(=O)O)c1)c1cc(S(=O)(=O)O)c2cccnc2c1O [Compound 92]	22	strong inhibitory effect		completely blocked
